Reference: US20160084841A1, “Method for Predicting Clinical Effect of Immunotherapy” (INTERNATIONAL INSTITUTE OF CANCER IMMUNOLOGY, INC., priority 2013, published 2016)

Key:
[1] = tested on: malignant glioblastoma patient; assay: Anti-WT1332 IgG antibody titer (ELISA) in serum of a patient given WT1332 peptide vaccine; assay type: in vivo, human; conditions: one patient immunized with WT1332 peptide, FIG. 18
Source text: (§1) From one malignant glioblastoma patient given WT1332 peptide vaccine (SEQ ID NO: 6), a serum sample was obtained before the start of administration of the vaccine, at 4 weeks after the start of administration, and at 1 year and 2 months after the start of administration. From one malignant thymic carcinoma patient given WT1235 peptide vaccine (WT1-CTL peptide (modified mp235-243) (SEQ ID NO: 3)) alone, a serum sample was obtained as a negative control in the same way as above. Each serum sample was stored at −20° C. until assay.
[…] The plate was left overnight at 37° C. to immobilize the antigen thereon. After washing with 0.05% TBST, blocking was performed by shaking at room temperature for 2 hours using a blocking buffer (1% gelatin/0.05% TBST). […] The reaction was terminated with 1 N HCl, and the absorbance at 450 nm was then measured using a microplate reader (CORONA […] MTP-32).
(§2) To a 96-well reaction plate supplied with Peptide Coating Kit (Takara Bio Inc.) having amino groups (—NH2) attached to the bottom surface of the wells, a solution (4 μg/mL) of the WT1 peptide dissolved in a reaction buffer supplied with Peptide Coating Kit was added at 50 μL/well. […] The reaction was terminated with 1 N HCl, and the absorbance at 450 nm was then measured using a microplate reader (CORONA […] MTP-310Lab).

[2] = tested on: anti-WT1332 peptide IgG antibody; assay: ELISA using variant WT1 antigen peptide as immobilized antigen to assay anti-WT1332 peptide IgG antibody; assay type: binding, human; conditions: serum diluted 100-fold; titer increased in WT1332-immunized patient, not in unimmunized patient; FIG. 18
Procedure: A vector expressing WT1-frg3 (SEQ ID NO: 57) as a GST-tagged protein was constructed using a pGEX-5X-3 vector (GE Healthcare Japan Corp.). The prepared vector was transferred to competent cells DH5α by heat shock. The vector-transferred E. coli was cultured. At the point in time when the OD600 value became 0.4 to 0.6, isopropyl-β-D-thiogalactoside (IPTG) was added at a final concentration of 1 mM to the medium to induce protein expression. The cells were further cultured for 3 hours. The bacterial cells were collected by centrifugation and then lysed in an SDS sample buffer (0.125 M Tris-HCl, 0.1 M DTT, 4% SDS, 10% sucrose, and bromophenol blue, pH 6.8). This lysate was fractionated on the basis of molecular weights by SDS-PAGE using a disc-type electrophoresis apparatus NA-1800 (Nihon Eido Corp.). A portion of each fraction thus collected by SDS-PAGE was stained with CBB, and a fraction containing WT1 was recovered. The purified protein was dissolved in an immobilizing buffer for ELISA (10 mM NaCO3, 30 mM NaHCO3, and 0.02% NaN3, pH 9.6) and used as an antigen for ELISA.
The GST-WT1 frag1 protein solution (10 ng/μL) was added at 100 μL/well to a 96-well plate for ELISA. The plate was left overnight at 37° C. to immobilize the antigen thereon. After washing with 0.05% TBST, blocking was performed by shaking at room temperature for 2 hours using a blocking buffer (1% gelatin/0.05% TBST). Then, the serum diluted 100-fold with 0.05% TBST was added thereto at 100 μL/well and reacted overnight at 4° C. […] The reaction was terminated with 1 N HCl, and the absorbance at 450 nm was then measured using a microplate reader (CORONA […] MTP-32).
as §2

[3] = tested on: anti-WT1235 peptide IgG antibody; assay: ELISA using variant WT1 antigen peptide as immobilized antigen to assay anti-WT1235 peptide IgG antibody; assay type: binding, human; conditions: serum of thymic carcinoma patient given WT1235 peptide; increase in titer detected; FIG. 19
Procedure: WK235-243 (SEQ ID NO: 62) and WT237-243 (SEQ ID NO: 63) were synthesized by GL Biochem (Shanghai) Corporation Ltd. WT1-frg2 (SEQ ID NO: 61) was prepared in the same way as in the aforementioned WT1-frg3 (SEQ ID NO: 57).
The measurement of the antibody titer using WT1-frg2 (SEQ ID NO: 61) was performed in the same way as in the aforementioned WT1-frg3 (SEQ ID NO: 57). The measurement of the antibody titer using WK235-243 (SEQ ID NO: 62) or WT237-243 (SEQ ID NO: 63) was performed in the same way as in the aforementioned WT332-347 (SEQ ID NO: 58), etc.

[4] = tested on: recurrent malignant glioblastoma (GBM) patients; assay: Anti-WT1-235 peptide IgG antibody titer (ELISA) in serum of GBM patients given WT1235 peptide vaccine; assay type: in vivo, human; conditions: 2 months and 3 months after the start of administration compared with before, ELISA antigen WT1-235 peptide, FIG. 1
Procedure: 1-1 WT1 peptide immunotherapy was carried out in 72 GBM patients using WT1235 peptide (WT1-CTL peptide (modified mp235-243) (SEQ ID NO: 3)) as a WT1 peptide vaccine. […]
as §2, with “groups” for “groups (—NH2)”, “WT1-235” for “WT1”
The comparison between two groups was conducted using the Mann-Whitney test. […] The anti-WT1 antigen peptide antibody titer was measured using the serum negative for the anti-WT1 antigen peptide antibody (patient's serum before the start of WT1 peptide immunotherapy) and the average value plus twice the standard deviation=0.045. […]

[5] = tested on: malignant thymic carcinoma patient; assay: Anti-WT1332 / anti-WT1235 IgG antibody titer (ELISA) in serum of a patient given WT1235 peptide vaccine; assay type: in vivo, human
Source text: as §1
The GST-WT1 frag1 protein solution (10 ng/μL) was added at 100 μL/well to a 96-well plate for ELISA. The plate was left overnight at 37° C. to immobilize the antigen thereon. After washing with 0.05% TBST, blocking was performed by shaking at room temperature for 2 hours using a blocking buffer (1% gelatin/0.05% TBST). Then, the serum diluted 100-fold with 0.05% TBST was added thereto at 100 μL/well and reacted overnight at 4° C. The plate was reacted with a peroxidase-labeled goat anti-human IgG antibody (Santa Cruz Biotechnology, Inc.) as a secondary antibody at room temperature for 2 hours. Then, a color was developed using a TMB kit (KPL, Kirkegaard & Perry Laboratories, Inc.). The reaction was terminated with 1 N HCl, and the absorbance at 450 nm was then measured using a microplate reader (CORONA […] MTP-32). […]

## KRYFKLSHLQMHSRKH [WT1332 peptide]
[1]; ELISA antigen WT1-frg3
  anti-WT1332 IgG antibody titer after immunization: increased
[1]; ELISA antigen WT332-347, WT334-342 or WT332-338
  anti-WT1332 IgG antibody titer after immunization: increased

## KRYFKLSHLQMHSRKH [WT332-347]
[2]
  ability as ELISA antigen to measure anti-WT1332 IgG antibody level in patient's serum: could measure an anti-WT1332 IgG antibody level in patient's serum

## CMTWNQMNK [WK235-243]
[3]
  ability as ELISA antigen to measure anti-WT1235 IgG antibody level in patient's serum: could measure an anti-WT1235 IgG antibody level in patient's serum

## KRYFKLS [WT332-338]
[2]
  ability as ELISA antigen to measure anti-WT1332 IgG antibody level in patient's serum: could measure an anti-WT1332 IgG antibody level in patient's serum

## CYTWNQMNL (Montanide ISA51 emulsion) [WT1235 peptide vaccine, emulsion with Montanide ISA51]
[4]
  anti-WT1-235 peptide IgG antibody titer after the start of administration: significantly increased
[5]; negative control: one patient immunized with WT1235 peptide alone (unimmunized with WT1332 peptide), ELISA antigen WT1-frg3
  anti-WT1332 IgG antibody titer after immunization: not increased
[5]; one thymic carcinoma patient, serum at 4 weeks and 7 months after start of administration, ELISA antigen WT1-frg2, FIG. 19
  anti-WT1235 IgG antibody titer: increase in anti-WT1235 IgG antibody titer was detected

## TWNQMNL [WT237-243]
[3]
  ability as ELISA antigen to measure anti-WT1235 IgG antibody level in patient's serum: could measure an anti-WT1235 IgG antibody level in patient's serum

## YFKLSHLQM [WT334-342]
[2]
  ability as ELISA antigen to measure anti-WT1332 IgG antibody level in patient's serum: could measure an anti-WT1332 IgG antibody level in patient's serum
